Experimental data: US11207301B2, “Sphingosine 1 phosphate receptor agonists for neuroprotection” (RECEPTOS LLC, priority 2017, dated 2021)
“Also recorded” adds a separate entry of the source.

What was measured:
[1] = target: T1, Recombinant human MAO-A (Homo sapiens, UniProt P21397); assay: MAO-A inhibition, conversion of kynuramine to 4-hydroxyquinoline; type: biochemical; conditions: tested up to 100 μM
T1 construct: purchased Sigma-Aldrich M7316; host or cells: baculovirus infected insect cells
T1 sequence (P21397 1-527): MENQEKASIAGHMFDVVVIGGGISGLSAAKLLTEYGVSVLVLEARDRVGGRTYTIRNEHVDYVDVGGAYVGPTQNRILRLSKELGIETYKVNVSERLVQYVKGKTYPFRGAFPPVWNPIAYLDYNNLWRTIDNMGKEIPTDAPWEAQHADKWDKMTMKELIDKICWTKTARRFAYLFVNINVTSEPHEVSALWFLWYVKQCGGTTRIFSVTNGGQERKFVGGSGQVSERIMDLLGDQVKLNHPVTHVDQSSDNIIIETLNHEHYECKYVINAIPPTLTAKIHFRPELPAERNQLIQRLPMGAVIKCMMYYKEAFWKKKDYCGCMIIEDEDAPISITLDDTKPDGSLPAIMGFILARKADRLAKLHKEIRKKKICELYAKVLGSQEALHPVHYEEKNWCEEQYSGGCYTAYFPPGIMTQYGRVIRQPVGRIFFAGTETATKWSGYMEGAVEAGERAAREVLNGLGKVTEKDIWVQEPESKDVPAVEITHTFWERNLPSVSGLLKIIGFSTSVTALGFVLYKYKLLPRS
Description: The effect of a S1P receptoragonist on MAO-B activity can be assessed by measuring the inhibition of conversion of substrate kynuramine to 4-hydroxyquinoline as described in Example 4.
Compound 1 and Compound 2-S were evaluated for their ability to inhibit MAO-A and MAO-B. Inhibition of the conversion of kynuramine, a substrate for MAO-A and MAO-B, to 4-hydroxyquinoline was used to assess the inhibitory potential of Compound 1 and Compound 2-S. Recombinant human MAO-A (product number M7316) and MAO-B (product number M7441) expressed in baculovirus infected insect cells were obtained from Sigma-Aldrich, Saint Louis, Mo. USA were used as a source of purified MAOs.
Recombinant MAO-A (0.01 mg/mL, final concentrations) and MAO-B (0.02 mg/mL, final concentration) were diluted to desired concentrations in 100 mM potassium phosphate buffer (pH 7.4) containing 5 mM MgCl2. The diluted protein fractions were preincubated with various concentrations of each test compound at 37° C. for 2 min. The concentrations used were 100, 33, 10, 3.3, 1.0, 0.33 μM and acetonitrile/DMSO as vehicle control for MAO-A and 1.0, 0.3, 0.1, 0.03, 0.01, 0.003 μM and acetonitrile/DMSO as vehicle control for MAO-B. The reaction was started by addition of kynuramine to the incubation mixture. The final concentration of kynuramine was 40 μM for MAO-A and 25 μM for MAO-B. The total incubation volume was 0.250 mL. […] The reaction product, 4-hydroxyquinoline was analyzed by LC-MS/MS as described below. […]
The gradient system was used to separate the analytes with a flow rate of 0.5 ml/min using mobile phase A, water containing 0.1% formic acid and mobile phase B, acetonitrile containing 0.1% formic acid. […] The analytes were monitored using multiple reaction monitoring and the ion transitions (Q1/Q3) were as follows: 4-hydroxyquinoline 146/104 (collision energy, CE was 27; declustering potential, DP, 50, and IS (acetaminophen), 152/110 (collision energy, CE was 27; declustering potential, DP, 50). All data were analyzed using AB Sciex Analyst v1.6.2 software.

[2] = tested on: experimental autoimmune encephalomyelitis (EAE)-induced mouse model of Multiple Sclerosis (MS); assay: Experimental autoimmune encephalomyelitis (EAE)-induced mouse model of multiple sclerosis, oral ozanimod; type: in vivo, C57BL/6 mice; conditions: EAE mice
Source text: (§1) In one embodiment, the S1P receptor agonist provides therapeutic benefit in the context of relapsing-remitting multiple sclerosis (RRMS), by down-modulating S1P receptor and resulting in retention of autoreactive lymphocytes in secondary lymphoid organs. As set forth in greater detail below, ozanimod activity on immune cell subsets was examined in the experimental autoimmune encephalomyelitis (EAE)-induced mouse model of Multiple Sclerosis (MS). C57BL/6 mice were immunized with MOG35-55 and pertussis toxin to initiate immune cell activation, migration to the spinal cord and neurodegeneration. Animals were treated with oral ozanimod either semi-therapeutically or therapeutically to investigate the impact on peripheral immune cell expansion and migration into the spinal cord. The plasma biomarker of CNS injury, neurofilament light (NfL), was measured at study termination.
as §1, with “Ozanimod” for “In one embodiment, the S1P receptor agonist provides therapeutic benefit in the context of relapsing-remitting multiple sclerosis (RRMS), by down-modulating S1P receptor and resulting in retention of autoreactive lymphocytes in secondary lymphoid organs. As set forth in greater detail below, ozanimod”

[3] = tested on: primary rodent astrocytes; assay: Primary rodent astrocytes in vitro, resting and LPS-activated; type: cell-based
Description: In addition, the effects of ozanimod on the CNS were examined in vivo using the cuprizone-induced mouse model of demyelination and in vitro in primary rodent astrocytes. Efficacy of ozanimod or compound (2-R) was examined in the cuprizone-induced mouse model of neuroprotection. C57BL/6 mice were treated with cuprizone (0.3% weight/weight orally) and rapamycin (10 mg/kg intraperitoneally daily) to demyelinate axons in the brain and concurrently treated with ozanimod (0.1, 0.3, or 1 mg/kg) or compound (2-S) (1 mg/kg) by daily oral gavage to investigate its neuroprotective activity. Neuroprotection was assessed through examination of axonal pathology in the corpus callosum using SMI-32 (antineurofilament H non-phosphorylated mouse monoclonal antibody) staining, functional assessment through kinematic gait analysis and the plasma biomarker neurofilament light chain (NfL). Further, direct activity of ozanimod was examined in resting and activated primary rodent astrocytes in vitro.

SMILES	MAO-A inhibition (in words) [1]	spinal cord inflammation and demyelination [2]	reduction of microglia expansion in the spinal cord ([2]; day 18-21 post-immunization)	decrease of monocyte infiltration into the spinal cord ([2]; oral ozanimod)	diminished Th1 and Th17 cell expansion in the periphery ([2]; oral ozanimod)	reduction of the number of Th1 and Th17 cells in the spinal cord ([2]; oral ozanimod)	plasma biomarker of CNS injury NfL ([2]; therapeutic dosing, at study termination, vehicle 3298±350, p=0.05)	release of pro-inflammatory cytokines, including IL-1β, TNFα, IL-6, and KC/GRO ([3]; induced by LPS activation)	ERK and AKT signaling pathways ([3]; primary rodent astrocytes)
CC(C)Oc1ccc(-c2nc(-c3cccc4c3CCC4=O)no2)cc1C#N [Compound 1, 2-isopropoxy-5-(3-(1-oxo-2,3-dihydro-1H-inden-4-yl)-1,2,4-oxadiazol-5-yl)benzonitrile]	not an inhibitor; also recorded: does not inhibit								
CC(C)Oc1ccc(-c2nc(-c3cccc4c3CC[C@@H]4NCCO)no2)cc1C#N [Ozanimod]		reduce spinal cord inflammation and demyelination	75%	65%	60-70%	≥ 80%	2209 ± 393 pg/mL	attenuated the release of pro-inflammatory cytokines	directly activated ERK and AKT signaling pathways
